Results on 6 molecules are retold here after paper PMC8772380, “Structural and Biochemical Investigation of Class I Ribonucleotide Reductase from the Hyperthermophile Aquifex aeolicus” (Biochemistry, 2021).

B1: Aquifex aeolicus ribonucleotide reductase R1 protein (α-subunit) (enzyme, UniProt O66503 1-801, looked up)
chain: MTMYVIKRSGRKEKLDINKIRIAIKFACEGLNVDPLELEADAQIQFRDGITTKEIQQLLIKTAAEKVSAERPDWTYTAARLLLYDLYKDVAHLRGYSLRDDLGKYKPYNRKNFYSFVKEYVEKGIYGEYLLENYSEEDFNKLANYIKPERDLYFTYTGIKILYDRYLVRDEEGRVIELPQEMYMLIAMTLAVPEKPEERLKWAKKFYDVLSEHKVTVATPTLMNARRPFTQLSSCFVLTVDDDLFDIFDNVKKAGMISKFAGGLGVYLGKIRATGAPIRKFKGASSGVIPVVKLINDTMTYVDQLGMRKGSASITLDIWHKDILDFLEVKTNVGDERKKAHDIHPAVSIPDLFMKRLKNREDWTLIDPYWARQYITRKIYDGKYKEVKPLPGSHYYVGIKEDGTQDILEPKGLEDFYGEEFEKWYLELEENLPSYAKKKVNSFELWKRLLTVAFETGEPYIFFRDEANRKNPNKHTGMVYSSNLCHEIVQTMSPSKHEKPVLDPETGEITYKKEAGDLPVCNLGSVNLGKVHTEEEIKEVLPLLVRMLDNVIEMNFYAIPEAEYTNKRYRAIGIGVSNYHYCLVKNGIKWESEEHLKFADKLFELIAFYALKGSLELAKERGRYKLFDGSNWSKGILFGRSVEEIEENSRQNGNNLPWRELAEEIKKYGIRNAYLLALMPTGSTSLILGATPSIDPIFARFYKEENMSGILPQVPPEVDRFYWHYKTAYTIDHEWTIRAAAVRQKWIDQAQSLNLFVDPQNIDGPRLSRLYELAWELGLKTIYYLRSRSAMDIEECEACSV
notes: Class I ribonucleotide reductase large (α) subunit R1, NrdAh subclass, Aquifex aeolicus; full length, synthetic gene (Genscript) in pET-28a(+) with N-terminal His tag and thrombin cleavage site; theoretical mass of the polypeptide 93 kDa; Homodimer in the crystal; monomer-dimer equilibrium in GEMMA and SEC; No removal of the His tag by thrombin is described; also called AaR1; NrdAh; source: E. …
B2: Aquifex aeolicus ribonucleotide reductase R2 protein (β-subunit), from a construct lacking the intein (enzyme, UniProt O67475 1-229, looked up)
chain: MEKTEKNELVRKLIFNPQGDREASKRKIIKGNPTNIFELNEIKYSWAFDLYKLMGFTNFWIPEEIQMLEDRKQYETVLSDYEKRAYELVLSFLIALDSFQVDMLKEFGRMITAPEVEMAITAQEFQESVHAYSYQFILESVVDPVKADEIYNYWREDERLLERNKVIAELYNEFIRKPNEENFIKATIGNYILESLYFYSGFAFFYTLGRQGKMRNTVQQIKYINRDELCHVTLFRNIINTLRKENPELFTPEIEKWIVEYFKYAVNEEIKWGQYVTQNQILGINDVLIERYIKYLGNLRITQIGFDPIYPEVTENPLKWIDEFRKINNTKTDFFQAKPQTYSKANELKW
notes: Class I ribonucleotide reductase small (β) subunit R2, Aquifex aeolicus; Leu229 is joined to Cys230; The natural gene product carries the intein between Leu229 and Cys230; Theoretical mass of the polypeptide 42 kDa. numbers count on: the mature protein (intein removed); Homodimer in the crystal, GEMMA and SEC; No removal of the His tag is described; also called AaR2; mature AaR2; source: E. coli …

In series [1] the target is T1, A. aeolicus RNR (AaR1 + AaR2) (Aquifex aeolicus, UniProt O66503).
T1 construct: gene nrdA; full length AaR1 and AaR2 (construct lacking the 346-residue intein, equal to mature R2; natural precursor contains the intein), N-terminal His tags with thrombin site, E. coli expression; R2 42 kDa; with Ribonucleoside-diphosphate reductase subunit beta
T1 sequence (O66503 1-801): B1 chain
T1 sequence (O67475 1-229 partner): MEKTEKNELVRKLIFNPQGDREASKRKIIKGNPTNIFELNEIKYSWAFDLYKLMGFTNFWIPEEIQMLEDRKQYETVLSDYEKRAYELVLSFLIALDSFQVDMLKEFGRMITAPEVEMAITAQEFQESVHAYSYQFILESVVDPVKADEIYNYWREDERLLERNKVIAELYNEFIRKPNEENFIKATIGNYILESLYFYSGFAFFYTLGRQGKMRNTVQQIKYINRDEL
T1 sequence (O67475 576-696 partner): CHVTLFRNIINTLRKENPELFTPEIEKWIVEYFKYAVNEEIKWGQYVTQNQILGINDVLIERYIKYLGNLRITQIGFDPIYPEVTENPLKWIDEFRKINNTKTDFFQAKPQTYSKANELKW
As to the kind of experiment: HPLC NDP reduction assay. Format: biochemical. The following applies: pH 6.8, 79 °C.

The target in another series is T2, AaR1 (Aquifex aeolicus, UniProt O66503).
T2 construct: gene nrdA; full length, N-terminal His tag and thrombin site (pET-28a), expressed in E. coli BL21(DE3); 93 kDa; monomer-dimer equilibrium
T2 sequence (O66503 1-801): B1 chain
As to the kind of experiment: GEMMA, effector-induced R1 dimerization. The following applies: allosteric; 100 µM dATP, equimolar Mg acetate, 300 mM ammonium acetate pH 7.5, preincubated at 78 °C. Format: binding.

Series [2] deals with the molecule itself. As to the kind of experiment: GEMMA (gas-phase electrophoretic mobility macromolecule analysis); individual R1 or R2 at 0.25 μM, 300 mM ammonium acetate pH 7.5, 0.005% Tween 20, without or with 300 μM ATP or 100 μM dATP (equimolar magnesium acetate); preincubated 2 min at 78 °C, analysed at room temperature.
The target in series [3] is B1. Briefly: SEC; equimolar AaR1 and AaR2, 20 μM, with ATP and MgCl2; Superdex 200 PC 3.2/30, 20 mM Hepes pH 7.4, 75 mM NaCl, 0.2 mM TCEP; preincubated 5 min at 70 °C, run at 7 °C; top peak fraction analysed by SDS-PAGE. The following applies: both partners purified. Background: In gel filtration, larger molecules generally elute earlier.

Turning to `Nc1ncnc2c1ncn2[C@@H]1O[C@H](COP(=O)(O)OP(=O)(O)OP(=O)(O)O)[C@@H](O)[C@H]1O` [ATP], in series [1] (allosteric activator, 2 mM ATP, four substrates 0.5 mM each, 10 mM DTT, 10 mM Mg acetate, titration with CDP in Figure S3), the “HPLC NDP reduction assay” value was “ATP induces the reduction of CDP and UDP”.
Regarding `Nc1nc2c(ncn2[C@H]2C[C@H](O)[C@@H](COP(=O)(O)OP(=O)(O)OP(=O)(O)O)O2)c(=O)[nH]1` [dGTP], in series [1] (allosteric effector, s-site, induces ADP reduction, 2 mM dGTP, four substrates 0.5 mM each), the “HPLC NDP reduction assay” value is “dTTP and dGTP induce the reduction of GDP and ADP, respectively”.
Consider `Nc1nc2c(ncn2[C@@H]2O[C@H](COP(=O)(O)OP(=O)(O)O)[C@@H](O)[C@H]2O)c(=O)[nH]1` [GDP], for which the “HPLC NDP reduction assay” value in series [1] (0.5 mM GDP with CDP, ADP and UDP, dTTP effector 2 mM, 10 mM DTT) was “specific activities for the conversion of CDP, UDP, GDP, and ADP to their corresponding dNDPs”.
As to `Nc1ncnc2c1ncn2[C@H]1C[C@H](O)[C@@H](COP(=O)(O)OP(=O)(O)OP(=O)(O)O)O1` [dATP], on AaR1, the “GEMMA, effector-induced R1 dimerization” value was “Allosteric effectors stimulated R1 dimerization, although complete conversion to dimers was not obtained”.
As a reminder, the stoichiometry N is the number of molecules, sites or subunits per partner or assembly. In the case of B1, the “stoichiometry N” value in series [2] stood at 2.
For the molecule B2, the “stoichiometry N” value is 1 AaR1:AaR2 in series [3] and 2 in series [2].
